Assays:
Assay type in all cases: biochemical
ITK = ITK (Homo sapiens (Human), UniProt Q08881); experiment: IC50 against ITK
TXK = TXK (Homo sapiens (Human), UniProt P42681); experiment: IC50 against TXK; conditions: for TXK/ITK: ratio of TXK IC50 to ITK IC50
JAK3 = JAK3 (Homo sapiens (Human), UniProt P52333); experiment: IC50 against JAK3
BTK = BTK (Homo sapiens (Human), UniProt Q06187); experiment: IC50 against BTK
BTK, sequence (Q06187 whole entry, species assumed): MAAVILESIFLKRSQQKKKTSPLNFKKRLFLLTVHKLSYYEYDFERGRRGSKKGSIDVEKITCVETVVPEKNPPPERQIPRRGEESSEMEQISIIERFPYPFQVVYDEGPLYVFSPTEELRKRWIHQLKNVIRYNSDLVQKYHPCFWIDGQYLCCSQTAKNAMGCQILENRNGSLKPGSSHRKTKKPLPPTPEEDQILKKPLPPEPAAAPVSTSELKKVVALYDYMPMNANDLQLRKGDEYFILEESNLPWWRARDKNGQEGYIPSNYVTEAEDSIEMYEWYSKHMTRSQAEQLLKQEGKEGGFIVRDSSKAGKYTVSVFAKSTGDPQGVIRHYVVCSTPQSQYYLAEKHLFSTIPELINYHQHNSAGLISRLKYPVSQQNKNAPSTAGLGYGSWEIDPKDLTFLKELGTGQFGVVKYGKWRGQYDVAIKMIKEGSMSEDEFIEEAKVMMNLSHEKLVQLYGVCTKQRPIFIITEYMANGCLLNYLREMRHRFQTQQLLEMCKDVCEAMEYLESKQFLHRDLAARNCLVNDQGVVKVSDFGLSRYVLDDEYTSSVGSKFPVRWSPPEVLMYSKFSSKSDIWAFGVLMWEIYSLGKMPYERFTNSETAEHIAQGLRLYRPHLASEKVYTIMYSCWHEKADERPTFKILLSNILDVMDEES

JAK3, sequence (P52333 whole entry, species assumed): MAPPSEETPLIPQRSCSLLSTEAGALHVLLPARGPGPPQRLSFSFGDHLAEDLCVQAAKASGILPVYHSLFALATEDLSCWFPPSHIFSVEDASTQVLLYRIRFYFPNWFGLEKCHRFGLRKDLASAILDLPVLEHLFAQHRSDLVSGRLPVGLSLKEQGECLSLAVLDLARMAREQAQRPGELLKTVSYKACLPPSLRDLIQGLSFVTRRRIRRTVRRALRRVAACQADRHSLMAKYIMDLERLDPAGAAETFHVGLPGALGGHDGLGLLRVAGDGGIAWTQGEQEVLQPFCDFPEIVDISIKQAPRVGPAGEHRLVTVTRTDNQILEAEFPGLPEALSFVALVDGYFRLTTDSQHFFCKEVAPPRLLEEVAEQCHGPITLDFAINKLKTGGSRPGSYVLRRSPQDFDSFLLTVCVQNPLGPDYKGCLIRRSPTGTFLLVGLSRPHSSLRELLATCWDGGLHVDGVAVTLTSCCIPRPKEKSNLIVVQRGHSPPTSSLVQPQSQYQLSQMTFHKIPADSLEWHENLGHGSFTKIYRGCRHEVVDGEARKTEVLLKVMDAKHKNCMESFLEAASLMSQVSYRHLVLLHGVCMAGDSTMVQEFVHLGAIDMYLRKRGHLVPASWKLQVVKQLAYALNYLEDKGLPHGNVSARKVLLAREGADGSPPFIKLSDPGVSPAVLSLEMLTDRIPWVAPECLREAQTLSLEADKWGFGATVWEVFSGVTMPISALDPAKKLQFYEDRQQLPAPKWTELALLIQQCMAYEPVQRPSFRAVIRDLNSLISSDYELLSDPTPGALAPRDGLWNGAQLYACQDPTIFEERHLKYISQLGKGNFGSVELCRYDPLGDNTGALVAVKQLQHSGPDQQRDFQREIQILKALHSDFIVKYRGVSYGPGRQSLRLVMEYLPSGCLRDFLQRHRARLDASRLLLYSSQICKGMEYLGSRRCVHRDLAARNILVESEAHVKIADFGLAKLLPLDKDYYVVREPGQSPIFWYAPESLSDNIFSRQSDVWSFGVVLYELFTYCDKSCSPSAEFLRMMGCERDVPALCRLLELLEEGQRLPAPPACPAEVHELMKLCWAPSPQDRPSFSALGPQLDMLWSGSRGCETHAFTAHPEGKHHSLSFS
TXK, sequence (P42681 whole entry, species assumed): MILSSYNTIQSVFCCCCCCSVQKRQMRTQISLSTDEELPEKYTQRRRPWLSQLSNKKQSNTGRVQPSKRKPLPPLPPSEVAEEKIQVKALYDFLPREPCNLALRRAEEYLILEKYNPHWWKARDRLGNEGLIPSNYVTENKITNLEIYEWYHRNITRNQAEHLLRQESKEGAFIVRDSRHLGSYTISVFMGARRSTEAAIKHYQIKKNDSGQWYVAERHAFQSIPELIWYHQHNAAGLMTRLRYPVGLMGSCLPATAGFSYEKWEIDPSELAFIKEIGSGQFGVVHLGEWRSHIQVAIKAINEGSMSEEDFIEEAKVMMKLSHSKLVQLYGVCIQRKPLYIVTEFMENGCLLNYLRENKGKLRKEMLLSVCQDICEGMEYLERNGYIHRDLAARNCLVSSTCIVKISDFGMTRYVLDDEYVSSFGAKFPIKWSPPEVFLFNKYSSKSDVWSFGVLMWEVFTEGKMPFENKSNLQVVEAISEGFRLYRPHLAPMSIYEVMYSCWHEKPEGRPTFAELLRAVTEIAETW
ITK, sequence (Q08881 whole entry): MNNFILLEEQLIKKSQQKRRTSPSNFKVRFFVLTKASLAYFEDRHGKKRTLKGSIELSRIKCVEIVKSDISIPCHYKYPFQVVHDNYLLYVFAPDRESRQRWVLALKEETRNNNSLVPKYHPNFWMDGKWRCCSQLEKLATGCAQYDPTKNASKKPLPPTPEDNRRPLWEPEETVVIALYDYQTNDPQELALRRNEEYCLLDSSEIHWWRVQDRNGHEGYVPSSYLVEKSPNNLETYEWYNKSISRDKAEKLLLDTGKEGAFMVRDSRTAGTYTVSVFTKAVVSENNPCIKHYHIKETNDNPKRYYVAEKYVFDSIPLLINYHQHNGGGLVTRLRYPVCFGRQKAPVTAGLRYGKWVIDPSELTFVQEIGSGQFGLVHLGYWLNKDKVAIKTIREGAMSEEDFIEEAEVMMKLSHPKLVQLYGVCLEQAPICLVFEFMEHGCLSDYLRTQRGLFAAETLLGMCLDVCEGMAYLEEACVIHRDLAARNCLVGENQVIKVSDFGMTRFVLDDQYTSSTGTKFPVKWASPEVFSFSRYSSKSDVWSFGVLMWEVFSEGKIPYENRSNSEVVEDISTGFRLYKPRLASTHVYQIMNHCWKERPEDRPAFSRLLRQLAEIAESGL

Row | SMILES | IC50 (ITK) [nM] | IC50 (TXK) [nM] | TXK/ITK (TXK) | IC50 (JAK3) [nM] | IC50 (BTK) [nM]
1 | C=CC(=O)N1CCCN(C(=O)c2cc(Sc3cnc(NC(=O)C4CCN(C)CC4)s3)c(C)cc2OC)CC1 [Compound 37] | 100 to 1000 | ≥ 10000 | 46.119 | ≥ 10000 | ≥ 10000
2 | C=CC(=O)N1[C@@H]2CC[C@H]1CN(C(=O)c1cc(Sc3cnc(NC(=O)c4ccsc4)s3)c(C)cc1OC)C2 [Compound 155, N-(5-((5-((1R, 5S)-8-acryloyl-3,8-diazabicyclo[3.2.1]octane-3-carbonyl)-4-methoxy-2-methylphenyl)thio)thiazol-2-yl)thiophene-3-carboxamide] | < 10 | < 10 | 2.73 | 10 to 100 | < 10
3 | C=CC(=O)N1CCCN(C(=O)c2cc(Sc3cnc(NC(=O)C4CC4)s3)c(C)cc2C)C[C@H]1CC [Compound 112] | < 10 | 100 to 1000 | 118.0 | 1000 to 10000 | 100 to 1000
4 | C=CC(=O)N1CCN(C(=O)c2cc(Sc3cnc(NC(=O)c4cccc(CN(C)C)c4)s3)c(C)cc2OC)C[C@H]1C [Compound 32] | < 10 | 100 to 1000 | 81.114 | 1000 to 10000 | 100 to 1000
5 | C=CC(=O)N1CCCN(C(=O)c2cc(Sc3cnc(NC(=O)c4cnsc4)s3)c(C)cc2C)C[C@H]1CC [Compound 123] | < 10 | 100 to 1000 | 144.0 | 1000 to 10000 | 100 to 1000
6 | C=CC(=O)N1CCN(C(=O)c2cc(Sc3cnc(Nc4ncc(C)nc4C)s3)c(C)cc2C)CC1 [Compound 139] | 10 to 100 | 10 to 100 | 4.65 | 100 to 1000 | 100 to 1000
7 | C=CC(=O)N1CCN(C(=O)c2cc(Sc3cnc(NC(C)=O)s3)c(C)cc2OC)CC1 [Compound 2] | < 10 | 100 to 1000 | 19.869 | 100 to 1000 | 100 to 1000
8 | C=CC(=O)N1CCCN(C(=O)c2cc(Sc3cnc(NC(=O)c4ccsc4)s3)c(C)cc2OC)C[C@H]1CC [Compound 120] | < 10 | 100 to 1000 | 66.4 | 1000 to 10000 | 100 to 1000
9 | C=CC(=O)N1CCN(C(=O)c2cc(Sc3cnc(NC(=O)C4CCCC4)s3)c(C)cc2OC)CC1 [Compound 31] | 10 to 100 | 100 to 1000 | 19.291 | 1000 to 10000 | 1000 to 10000

The next lines start with the values.

Row | IC50 (ITK) [nM] | IC50 (TXK) [nM] | TXK/ITK (TXK) | IC50 (JAK3) [nM] | IC50 (BTK) [nM] | SMILES
10 | < 10 | 10 to 100 | 2.66 | 1000 to 10000 | 10 to 100 | C=CC(=O)N1CCN(C(=O)c2cc(C(C)c3cnc(NC(=O)C4CC4)s3)c(C)cc2OC)CC1 (stereo not drawn) [Compound 140]
11 | < 10 | < 10 | 0.93 | 100 to 1000 | < 10 | C=CC(=O)N1CCN(C(=O)c2cc(C(C)c3cnc(Nc4ccccn4)s3)c(C)cc2OC)CC1 (stereo not drawn) [Compound 137]
12 | < 10 | 10 to 100 | 14.236 | 100 to 1000 | 100 to 1000 | C=CC(=O)N1CCN(C(=O)c2cc(Sc3cnc(NC(C)=O)s3)c(C)cc2OC)[C@@H](C)C1 [Compound 9]
13 | < 10 | < 10 | 0.392 | 100 to 1000 | 10 to 100 | C=CC(=O)N1CCN(C(=O)c2cc(Cc3cnc(NC(=O)C4CC4)s3)c(C)cc2OC)CC1 [Compound 65]
14 | < 10 | 100 to 1000 | 252.91 | ≥ 10000 | 1000 to 10000 | C=CC(=O)N1CCCN(C(=O)c2cc(Sc3cnc(NC(=O)c4cnsc4)s3)c(C)cc2OC)C[C@H]1C [Compound 93]
15 | < 10 | < 10 | 4.6 | 10 to 100 | 10 to 100 | C=CC(=O)N1CCN(C(=O)c2cc(Sc3cnc(Nc4ccccn4)s3)c(C)cc2C)CC1 [Compound 133]

Source: patent US11008314B2, “Compounds and methods for modulating interleukin-2-inducible t-cell kinase” (CORVUS PHARMACEUTICALS, INC., priority 2016, dated 2021)
